The results in this text go back to US12578273B2, “Ph-reversible leuco-BODIPY probe for in situ visualization of extracellular vesicles and their secretion from living cells” (The Chinese University of Hong Kong, priority 2021, dated 2026).

The test system of data set [1] is HeLa cells that express GFP-tagged CD81. Put plainly: Confocal imaging of EVs or precursor EVs (colocalization of BODIPY with GFP-tagged CD81). The data set is classed as cell-based. Conditions: 30 min. The procedure:
(§1) Pre-seeded in 35-mm confocal dishes (SPL Life Sciences, Pocheon, South Korea), cells were grown to the desired confluence before transfection. The transfection medium, formulated in 1 mL of OptiMEM (Gibco, Waltham, MA), contains 7.5 μL of Lipofectamine 3000 (Invitrogen) and either 2.5 μg/mL GFP-CD81 or EGFP-tubulin-6 plasmids. After incubating the cells with the transfection medium for 4 h, the cells were switched to 2 mL of plasmid-free complete DMEM for 2 d. After that, the transfected cells were incubated with leuco-BODIPY for further confocal imaging.
(§2) Confocal imaging of EVs or precursor EVs To prepare the stock of the probe for our cell-based experiments, BODIPY was pre-dissolved in 100% DMSO (2 mM). After dissolution, the probe predominantly assumes the leuco-BODIPY form, as evidenced by its light-yellow color. Cells that express marker proteins of interest (i.e., GFP-tagged CD81 or EGFP-tagged tubulin-6) were pre-seeded in 35-mm confocal dishes. After removing the culture medium, the transfected cells were incubated with 1 mL of 2 μM leuco-BODIPY [dissolved in phenol red-free DMEM (Gibco) with […] (Invitrogen) for solubilization] for 30 min. The EVs in the medium or precursor EVs inside cells were imaged under a Leica SP8 confocal microscope with a 63× objective. The excitation wavelengths of the GFP-tagged proteins and BODIPY were 488 nm and 575 nm, respectively. The emission wavelengths of the GFP-tagged proteins and BODIPY were 495-525 nm and 585-710 nm, respectively. All images were taken at the same laser settings.
(§3) Then, we seeded HeLa, A549, or HEK293 cells that express GFP-tagged CD81 in a confocal dish and incubated the cells with phenol red-free medium containing 2 μM leuco-BODIPY and 0.1% DMSO for 30 min. Note that this probe is predominantly in its leuco-BODIPY form when dissolved in DMSO, as evidenced by its light-yellow color. We obtained confocal images of the cell-seeded medium without harvesting the EVs or rinsing the cells (FIGS. 2A, 30-31). Representative images of their extracellular space depict granular or spherical pockets of fluorescence from BODIPY (red) amidst a dark background. […] The fluorescent pockets of BODIPY are submicron-sized or micron-sized, larger than the reported sizes of exosomes (50-200 nm).^36 As the resolution limit of confocal microscopy may overestimate the size of EVs, we isolated EVs from the cell-seeded medium for nanoparticle tracking analysis (NTA; FIG. 2B). The hydrodynamic size distribution of the EVs lies between about 50 nm and about 400 nm, with peak EV diameters of 151 nm, 104 nm, and 156 nm for HeLa, A549, and HEK293 cells, respectively. As these peak EV sizes corroborate the typical sizes of exosomes, we conclude that the EVs detected are mostly exosomes, with a smaller portion of larger ectosomes, clustered exosomes, or extracellular MVBs (FIGS. 4A-4C).
(§4) Next, we attempted to use our probe for imaging intracellular precursor EVs before their secretion to the extracellular milieu. Again, we added leuco-BODIPY (dissolved in DMSO) to culture medium seeded with HeLa, A549, or HEK293 cells that express GFP-tagged CD81 for 30 min (FIG. 3). […] Contrarily, the overlap between BODIPY and GFP-CD81 fluorescence in the cytoplasm is moderate, characterized by Pearson's colocalization coefficients of 0.72, 0.66, and 0.63 for HeLa, A549, and HEK293 cells, respectively. As a negative control, we captured confocal images of the three cell lines but without adding leuco-BODIPY to the medium.

The subject of data set [2] is A549 cells that express GFP-tagged CD81. The data set is described as above. The settings on record: 30 min. The data set is classed as cell-based. The procedure: as §1, §2, §3, §4
The subject of data set [3] is HEK293 cells that express GFP-tagged CD81. The data set is described as above. The data set is classed as cell-based. Conditions: 30 min. The procedure:
as §1, §2, §3, §4

The next data set relates to HeLa cells. Put plainly: Effect of probe staining on the secretion of EVs (nanoparticle tracking analysis). It counts as cell-based. The settings on record: 5 μM leuco-BODIPY, 3 h, NTA. The procedure:
FIGS. 32A-32B Effect of probe staining on the secretion of EVs. HeLa cells were incubated with (FIG. 32A) complete DMEM or (FIG. 32B) DMEM containing 5 μM leuco-BODIPY for 3 h. After that, the EV sample was isolated from the cells for nanoparticle tracking analysis (NTA).
EV samples were diluted with filtered PBS (0.2 μm) to obtain an EV concentration of 10^8-10^9 particles/mL. For each sample, four 1-min videos were recorded when introduced about 1 mL of the conditioned medium to the NTA system (Malvern NanoSight NS500, Malvern, UK). The temperature was kept at about 18° C. Images in each video were analyzed with NTA 3.1 Build 3.1.45 software (Malvern). Auto settings were used for blur size and maximum jump distance. 2000 frames were examined per sample. […]
Moreover, we incubated the three cell types with our probe for 30 min, isolated the EVs secreted to the culture medium, centrifuged the collected medium to remove any dye-stained cell fragments, and confirmed the detection of fluorescence in the isolated EVs (Table 1). By contrast, for the EVs isolated from the same cell types under the same culture conditions but without treatment by our probe, the fluorescence detected was at the background level of blank culture medium.

The nature of data set [4]: pH-dependent spectroscopic properties (pH titration, absorption and fluorescence). The data set is classed as physicochemical. Conditions: weakly basic conditions (pH of about 7.4); PBS containing 50% ethanol. The procedure: In each step of pH titration, small volumes (2-10 μL) of HCl at appropriate concentrations (0.1, 10^−2, or 10^−3 M) were pipetted directly into the measurement cell, followed by filling up with 2 mL of 1 μM dye-containing solution [either in a mixture of PBS/ethanol 1:1 (v/v) or 0.5% (v/v) DMSO]. The pH was monitored at 298 K using a digital pH meter (827 pH lab) equipped with a Biotrode (Metrohm, Herisau, Switzerland). Calibration of the instrument was performed with standard aqueous solutions of pH 4, 7, and 9 from Metrohm. Absorption and fluorescence measurements were carried out on an Agilent Cary 5000 spectrophotometer and a Horiba Jobin Yvon spectrometer (Nanolog FL3-2iHR), respectively.
We investigated the spectroscopic properties of the fluorescent probe as a function of pH in phosphate-buffered saline (PBS) containing 50% ethanol by UV-vis spectrophotometry and fluorimetry (FIGS. 21A-21F, 22-23).

The mark [5] stands for this setting: extracellular space (CD81-enriched exosomes), 2 μM, no rinsing.

`CCOC(=O)C(=Cc1ccc2n1[B-](F)(F)n1c(C=C(C(=O)OCC)C(=O)OCC)ccc1C2(OC)c1ccncc1)C(=O)OCC` [leuco-BODIPY]: the “Pearson's colocalization coefficient between BODIPY and CD81-GFP fluorescence” value is listed as 0.92 in data set [1] (setting [5]), 0.85 in data set [2] (setting [5]) and 0.94 in data set [3] (setting [5]). In addition, the “Pearson's colocalization coefficient between BODIPY and GFP-CD81 fluorescence” value in data set [1] (in the cytoplasm) came out at 0.72; in data set [1] (on the pseudopodia), 0.94; in data set [2] (in the cytoplasm), 0.66; in data set [2] (on the pseudopodia), 0.90; in data set [3] (in the cytoplasm), 0.63; in data set [3] (on the pseudopodia) it was 0.86. In addition, the “effect on EV secretion (size distribution of EVs from dye-stained vs unstained cells)” value with HeLa cells was “limited effect”. In data set [4], this compound displayed a new absorption band of roughly 360 nm.
